Like-named read-outs stand apart in the source and are kept apart here.
Legend:
[1] = target: human cannabinoid CB1 receptor (Homo sapiens, UniProt P21554); experiment: CB1 receptor radioligand ([3H]CP-55,940) displacement binding assay; conditions: for inhibition at 1 µM: read-out: displacement of [3H]CP-55,940 in the preliminary screen (printed in the CB1 Ki column)
Method: In all cases, Ki values were calculated by applying the Cheng-Prusoff equation [34] to the IC50 values (obtained by GraphPad, GraphPad Software, Inc., La Jolla, CA, USA) for the displacement of the bound radioligand by increasing concentrations of the test compounds (after three separate experiments for each compound).

[2] = Experimental activity (pIC50, M), CoMFA training and test set input
[3] = CB1 (Ki, nM), displacement of 0.5 nM [3H]CP-55,940, means ± SEM, n = 3, Cheng-Prusoff from IC50
[4] = IC50 (CB1 displacement), displacement of [3H]CP-55,940
[5] = CoMFA training and test set input, read-out: Experimental activity (pIC50) (converted)

Sequence of human cannabinoid CB1 receptor (P21554 whole entry): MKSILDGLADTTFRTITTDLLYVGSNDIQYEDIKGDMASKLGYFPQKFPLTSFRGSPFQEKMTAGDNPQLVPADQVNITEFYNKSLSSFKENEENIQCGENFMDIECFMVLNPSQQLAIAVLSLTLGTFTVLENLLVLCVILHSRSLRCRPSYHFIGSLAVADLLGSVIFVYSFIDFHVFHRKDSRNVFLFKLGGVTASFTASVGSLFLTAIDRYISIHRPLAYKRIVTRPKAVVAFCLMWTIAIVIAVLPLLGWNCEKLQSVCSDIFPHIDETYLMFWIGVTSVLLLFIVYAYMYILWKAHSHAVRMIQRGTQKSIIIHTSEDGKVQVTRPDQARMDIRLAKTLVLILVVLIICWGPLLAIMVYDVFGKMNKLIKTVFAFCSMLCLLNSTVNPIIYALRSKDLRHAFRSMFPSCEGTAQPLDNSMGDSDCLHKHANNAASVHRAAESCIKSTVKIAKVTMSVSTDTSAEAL

With `O=C(c1cccc2ccccc12)n1c(-c2ccccn2)nc2ccccc21` [Compound 10, Naphthalen-1-yl(2-(pyridin-2-yl)-1H-benzo[d]imidazol-1-yl)methanone] the inhibition at 1 µM [1] was under 50%.

`O=C(c1cccc2ccccc12)n1c(-c2ccccn2)nc2cc(F)ccc21` [Compound 11, (5-Fluoro-2-(pyridin-2-yl)-1H-benzo[d]imidazol-1-yl)(naphthalen-1-yl)methanone] gave a melting point of 167.2 to 167.9 °C and an inhibition at 1 µM [1] of under 50%.

Work on `O=C(c1cccc2ccccc12)n1c(-c2ccccn2)nc2ccc(F)cc21` [Compound 12, (6-Fluoro-2-(pyridin-2-yl)-1H-benzo[d]imidazol-1-yl)(naphthalen-1-yl)methanone] yielded a melting point of 177.2 to 178 °C and an inhibition at 1 µM [1] of under 50%.

In the case of `Cc1cc2nc(-c3ccccn3)n(C(=O)c3cccc4ccccc34)c2cc1C` [Compound 13, (5,6-Dimethyl-2-(pyridin-2-yl)-1H-benzo[d]imidazol-1-yl)(naphthalen-1-yl)methanone], the melting point is reported as 167.2 to 168 °C and the inhibition at 1 µM [1] is reported as under 50%.

For `O=C(c1cccc2ccccc12)n1c(-c2cccnc2)nc2ccccc21` [Compound 14, Naphthalen-1-yl-(2-(pyridin-3-yl)-1H-benzo[d]imidazol-1-yl)methanone], the melting point was 148 to 148.1 °C and the IC50 [1, 2] was 0.18 µM.

`O=C(c1cccc2ccccc12)n1c(-c2cccnc2)nc2cc(F)ccc21` [Compound 15, (5-Fluoro-2-(pyridin-3-yl)-1H-benzo[d]imidazol-1-yl)(naphthalen-1-yl)methanone] showed a Ki [1, 3] of 534 nM and an IC50 [1, 2] of 0.979 µM.

`O=C(c1cccc2ccccc12)n1c(-c2cccnc2)nc2ccc(F)cc21` [Compound 16, (6-Fluoro-2-(pyridin-3-yl)-1H-benzo[d]imidazol-1-yl)(naphthalen-1-yl)methanone] gave an inhibition at 1 µM [1] of under 50%.

`Cc1cc2nc(-c3cccnc3)n(C(=O)c3cccc4ccccc34)c2cc1C` [Compound 17, (5,6-Dimethyl-2-(pyridin-3-yl)-1H-benzo[d]imidazol-1-yl)(naphthalen-1-yl)methanone] gave a melting point of 177.2 to 178 °C and an inhibition at 1 µM [1] of under 50%.

Compound `O=C(c1cccc2ccccc12)n1c(-c2ccncc2)nc2ccccc21` [Compound 18, Naphthalen-1-yl-(2-(pyridin-4-yl)-1H-benzo[d]imidazol-1-yl)methanone] has a melting point of 155 to 156.1 °C, a Ki [1, 3] of 37.8 ± 5.3 nM and an IC50 [1, 2] of 0.0693 µM.

`O=C(c1cccc2ccccc12)n1c(-c2ccncc2)nc2cc(F)ccc21` [Compound 19, (5-Fluoro-2-(pyridin-4-yl)-1H-benzo[d]imidazol-1-yl)(naphthalen-1-yl)methanone] showed a melting point of 180.7 to 181.7 °C and an inhibition at 1 µM [1] of under 50%.

`O=C(c1cccc2ccccc12)n1c(-c2ccncc2)nc2ccc(F)cc21` [Compound 20, (6-Fluoro-2-(pyridin-4-yl)-1H-benzo[d]imidazol-1-yl)(naphthalen-1-yl)methanone] showed a melting point of 190.4 to 190.9 °C and an inhibition at 1 µM [1] of under 50%.

Compound `Cc1cc2nc(-c3ccncc3)n(C(=O)c3cccc4ccccc34)c2cc1C` [Compound 21, (5,6-Dimethyl-2-(pyridin-4-yl)-1H-benzo[d]imidazol-1-yl)(naphthalen-1-yl)methanone] has a melting point of 167.2 to 168 °C, a Ki [1, 3] of 3.95 ± 0.8 nM and an IC50 [1, 2] of 0.00724 µM. For the same compound, the IC50 [1, 4] was under 0.01 µM.

Compound `O=C(c1ccc2ccccc2c1)n1c(-c2ccccn2)nc2ccccc21` [Compound 22, Naphthalen-2-yl(2-(pyridin-2-yl)-1H-benzo[d]imidazol-1-yl)methanone] has a melting point of 145 to 146 °C and an inhibition at 1 µM [1] of under 50%.

Compound `O=C(c1ccc2ccccc2c1)n1c(-c2ccccn2)nc2ccc(F)cc21` [Compound 23, (6-Fluoro-2-(pyridin-2-yl)-1H-benzo[d]imidazol-1-yl)(naphthalen-2-yl)methanone] has a Ki [1, 3] of 11.4 ± 0.9 nM, an IC50 [1, 2] of 0.0209 µM and an IC50 [1, 4] of about 0.02 µM.

`Cc1cc2nc(-c3ccccn3)n(C(=O)c3ccc4ccccc4c3)c2cc1C` [Compound 24, (5,6-Dimethyl-2-(pyridin-2-yl)-1H-benzo[d]imidazol-1-yl)(naphthalen-2-yl)methanone] gave a melting point of 168.7 to 169.6 °C, a Ki [1, 3] of 28.1 ± 2.3 nM and an IC50 [1, 2] of 0.0515 µM.

Work on `O=C(c1ccc2ccccc2c1)n1c(-c2cccnc2)nc2ccccc21` [Compound 25, Naphthalen-2-yl(2-(pyridin-3-yl)-1H-benzo[d]imidazol-1-yl)methanone] yielded a melting point of 148 to 148.6 °C and an inhibition at 1 µM [1] of under 50%.

`O=C(c1ccc2ccccc2c1)n1c(-c2cccnc2)nc2cc(F)ccc21` [Compound 26, (5-Fluoro-2-(pyridin-3-yl)-1H-benzo[d]imidazol-1-yl)(naphthalen-2-yl)methanone] gave an IC50 [1, 5] of 10.4 µM and a Ki ([1]; read-out: CB1 (Ki)) of 5700 ± 200 nM.

Compound `O=C(c1ccc2ccccc2c1)n1c(-c2cccnc2)nc2ccc(F)cc21` [Compound 27, (6-Fluoro-2-(pyridin-3-yl)-1H-benzo[d]imidazol-1-yl)(naphthalen-2-yl)methanone] has a melting point of 167.2 to 167.7 °C, an IC50 [1, 5] of 1.77 µM and a Ki ([1]; read-out: CB1 (Ki)) of 963 ± 155 nM.

Work on `Cc1cc2nc(-c3cccnc3)n(C(=O)c3ccc4ccccc4c3)c2cc1C` [Compound 28, (5,6-Dimethyl-2-(pyridin-3-yl)-1H-benzo[d]imidazol-1-yl)(naphthalen-2-yl)methanone] yielded a melting point of 166.7 to 166.9 °C, a Ki [1, 3] of 567 ± 27.8 nM and an IC50 [1, 2] of 1.04 µM.

With `O=C(c1ccc2ccccc2c1)n1c(-c2ccncc2)nc2ccccc21` [Compound 29, Naphthalen-2-yl(2-(pyridin-4-yl)-1H-benzo[d]imidazol-1-yl)methanone] the melting point was 145 to 146.1 °C, the IC50 [1, 5] was 8.22 µM and the Ki ([1]; read-out: CB1 (Ki)) was 4490 ± 133 nM.

In the case of `O=C(c1ccc2ccccc2c1)n1c(-c2ccncc2)nc2cc(F)ccc21` [Compound 30, (5-Fluoro-2-(pyridin-4-yl)-1H-benzo[d]imidazol-1-yl)(naphthalen-2-yl)methanone], the melting point is reported as 195.7 to 200.6 °C, the Ki [1, 3] is reported as 1030 ± 57.9 nM and the IC50 [1, 2] is reported as 1.88 µM.

In the case of `O=C(c1ccc2ccccc2c1)n1c(-c2ccncc2)nc2ccc(F)cc21` [Compound 31, (6-Fluoro-2-(pyridin-4-yl)-1H-benzo[d]imidazol-1-yl)(naphthalen-2-yl)methanone], the Ki [1, 3] is reported as 5.55 ± 0.9 nM, the IC50 [1, 2] is reported as 0.0102 µM and the IC50 [1, 4] is reported as under 0.01 µM.

With `Cc1cc2nc(-c3ccncc3)n(C(=O)c3ccc4ccccc4c3)c2cc1C` [Compound 32, (5,6-Dimethyl-2-(pyridin-4-yl)-1H-benzo[d]imidazol-1-yl)(naphthalen-2-yl)methanone] the melting point was 160.4 to 160.9 °C and the inhibition at 1 µM [1] was under 50%.

`c1ccc(-c2nc3ccccc3n2Cc2cccc3ccccc23)nc1` [Compound 33, 1-(Naphthalen-1-ylmethyl)-2-(pyridin-2-yl)-1H-benzo[d]imidazole] gave a melting point of 150.7 to 151.6 °C and an inhibition at 1 µM [1] of under 50%.

With `Fc1ccc2c(c1)nc(-c1ccccn1)n2Cc1cccc2ccccc12` [Compound 34, 5-Fluoro-1-(naphthalen-1-ylmethyl)-2-(pyridin-2-yl)-1H-benzo[d]imidazole] the melting point was 155.7 to 155.9 °C and the inhibition at 1 µM [1] was under 50%.

`Fc1ccc2nc(-c3ccccn3)n(Cc3cccc4ccccc34)c2c1` [Compound 35, 6-Fluoro-1-(naphthalen-1-ylmethyl)-2-(pyridin-2-yl)-1H-benzo[d]imidazole] gave a melting point of 160.7 to 161.1 °C and an inhibition at 1 µM [1] of under 50%.

`Cc1cc2nc(-c3ccccn3)n(Cc3cccc4ccccc34)c2cc1C` [Compound 36, 5,6-Dimethyl-1-(naphthalen-1-ylmethyl)-2-(pyridin-2-yl)-1H-benzo[d]imidazole] gave a melting point of 155.5 to 156.1 °C, a Ki [1, 3] of 13 ± 1.1 nM and an IC50 [1, 2] of 0.0239 µM. The IC50 [1, 4] was about 0.02 µM.

`c1cncc(-c2nc3ccccc3n2Cc2cccc3ccccc23)c1` [Compound 37, 1-(Naphthalen-1-ylmethyl)-2-(pyridin-3-yl)-1H-benzo[d]imidazole] showed a melting point of 160.2 to 161.1 °C, a Ki [1, 3] of 75.9 ± 16.6 nM and an IC50 [1, 2] of 0.139 µM.

Work on `Fc1ccc2c(c1)nc(-c1cccnc1)n2Cc1cccc2ccccc12` [Compound 38, 5-Fluoro-1-(naphthalen-1-ylmethyl)-2-(pyridin-3-yl)-1H-benzo[d]imidazole] yielded a melting point of 163.4 to 163.9 °C, a Ki [1, 3] of 98.2 ± 33.5 nM and an IC50 [1, 2] of 0.18 µM.

With `Fc1ccc2nc(-c3cccnc3)n(Cc3cccc4ccccc34)c2c1` [Compound 39, 6-Fluoro-1-(naphthalen-1-ylmethyl)-2-(pyridin-3-yl)-1H-benzo[d]imidazole] the melting point was 156.1 to 157 °C, the Ki [1, 3] was under 200 nM and the IC50 [1, 2] was 0.000979 µM. For the same compound, the IC50 [1, 4] was under 0.01 µM and the Ki ([1]; read-out: CB1 (Ki), displacement of 0.5 nM [3H]CP-55,940, means ± SEM, n = 3, Cheng-Prusoff from IC50) was 0.53 ± 0.9 nM.

With `Cc1cc2nc(-c3cccnc3)n(Cc3cccc4ccccc34)c2cc1C` [Compound 40, 5,6-Dimethyl-1-(naphthalen-1-ylmethyl)-2-(pyridin-3-yl)-1H-benzo[d]imidazole] the melting point was 141.4 to 142.1 °C and the inhibition at 1 µM [1] was under 50%.

Compound `Cc1cc2nc(-c3ccccn3)n(Cc3ccc4ccccc4c3)c2cc1C` [Compound 48, 5,6-Dimethyl-1-(naphthalen-2-ylmethyl)-2-(pyridin-2-yl)-1H-benzo[d]imidazole] has a Ki [1, 3] of 47.4 ± 11.1 nM and an IC50 [1, 2] of 0.0869 µM.

`Fc1ccc2nc(-c3cccnc3)n(Cc3ccc4ccccc4c3)c2c1` [Compound 51, 6-Fluoro-1-(naphthalen-2-ylmethyl)-2-(pyridin-3-yl)-1H-benzo[d]imidazole] gave a Ki [1, 3] of 10.7 ± 2.8 nM, an IC50 [1, 2] of 0.0196 µM and an IC50 [1, 4] of about 0.02 µM.

`c1ccc2cc(Cn3c(-c4ccncc4)nc4ccccc43)ccc2c1` [Compound 53, 1-(Naphthalen-2-ylmethyl)-2-(pyridin-4-yl)-1H-benzo[d]imidazole] gave an IC50 [1, 5] of 0.851 µM and a Ki ([1]; read-out: CB1 (Ki)) of 464 ± 30.3 nM.

Source: article PMC6270614 (Molecules, 2013)
